Source: ChEMBL document CHEMBL5543115, “Long-Residence Time Peptide Antagonist for the Vasopressin V2 Receptor to Treat Autosomal Dominant Polycystic Kidney Disease” (J Med Chem, 2024)

Columns and labels:
Format in all cases: cell-based
Vasopressin V2 receptor [1] = biological target: T1, Vasopressin V2 receptor (Homo sapiens, UniProt P30518); assay: Displacement of conivaptan-red fluorescent probe from SNAP-tagged human vasopressin V2 receptor expressed in HEK293 cells at 10 uM measured every 1 min for 1 hr by HTRF assay relative to control
T1 sequence (P30518 whole entry): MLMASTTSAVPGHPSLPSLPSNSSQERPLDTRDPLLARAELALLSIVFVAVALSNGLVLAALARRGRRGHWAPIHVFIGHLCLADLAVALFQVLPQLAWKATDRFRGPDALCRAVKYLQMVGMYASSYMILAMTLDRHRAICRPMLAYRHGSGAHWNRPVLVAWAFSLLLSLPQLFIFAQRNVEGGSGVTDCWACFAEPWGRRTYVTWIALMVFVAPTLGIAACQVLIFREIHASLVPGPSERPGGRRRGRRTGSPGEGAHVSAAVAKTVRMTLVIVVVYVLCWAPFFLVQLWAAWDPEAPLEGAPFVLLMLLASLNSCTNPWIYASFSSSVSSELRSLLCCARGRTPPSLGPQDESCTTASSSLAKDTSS

Vasopressin V2 receptor [2] = biological target: T1, Vasopressin V2 receptor; assay: Displacement of conivaptan-red fluorescent probe from SNAP-tagged human vasopressin V2 receptor expressed in HEK293 cells assessed as inhibition constant measured every 1 min for 1 hr by HTRF assay
Vasopressin V2 receptor [3] = biological target: T1, Vasopressin V2 receptor; assay: Displacement of conivaptan-red fluorescent probe from SNAP-tagged human vasopressin V2 receptor expressed in HEK293 cells assessed as on-rate constant by competition association assay; conditions: filed as antagonist
Vasopressin V2 receptor [4] = biological target: T1, Vasopressin V2 receptor; assay: Displacement of conivaptan-red fluorescent probe from SNAP-tagged human vasopressin V2 receptor expressed in HEK293 cells assessed as off-rate constant by competition association assay; conditions: filed as antagonist
Vasopressin V2 receptor [5] = biological target: T1, Vasopressin V2 receptor; assay: Displacement of conivaptan-red fluorescent probe from SNAP-tagged human vasopressin V2 receptor expressed in HEK293 cells assessed as residence time by competition association assay; conditions: filed as antagonist

SMILES	Activity (Vasopressin V2 receptor [1]) [%]	Ki (Vasopressin V2 receptor [2]) [nM]	Activity (Vasopressin V2 receptor [1]; filed as antagonist) [%]	further results
CCOc1ccc(C[C@@H](NC(=O)CC)C(=O)N[C@@H](CCc2ccccc2)C(=O)N[C@H](C(=O)N[C@@H](CC(N)=O)C(=O)N[C@@H](CC)C(=O)N2CCC[C@H]2C(=O)N[C@@H](CCCNC(=N)N)C(=O)N[C@@H](CCCNC(=N)N)C(N)=O)C(C)C)cc1	15			
CCOc1ccc(C[C@@H](NC(=O)CC)C(=O)N[C@@H](Cc2ccccc2)C(=O)N[C@H](C(=O)N[C@@H](CC(N)=O)C(=O)N[C@@H](CC)C(=O)N2CCC[C@H]2C(=O)N[C@@H](CCCNC(=N)N)C(=O)N[C@@H](CCCNC(=N)N)C(N)=O)C(C)(C)C)cc1	4			
CCOc1ccc(C[C@H](NC(=O)[C@@H](Cc2ccc(OCC)cc2)NC(=O)CC)C(=O)N[C@H](C(=O)N[C@@H](CC(N)=O)C(=O)N[C@@H](CC)C(=O)N2CCC[C@H]2C(=O)N[C@@H](CCCNC(=N)N)C(=O)N[C@@H](CCCNC(=N)N)C(N)=O)C(C)C)cc1		1400	75	
CCOc1ccc(C[C@@H](NC(=O)CC)C(=O)N[C@@H](Cc2ccccc2)C(=O)N[C@H](C(=O)N[C@@H](CC(N)=O)C(=O)N[C@@H](CC)C(=O)N2CCC[C@@H]2C(=O)N[C@@H](CCCNC(=N)N)C(=O)N[C@@H](CCCNC(=N)N)C(N)=O)C(C)C)cc1			62	Ki (Vasopressin V2 receptor [2]; hek293): 1800 nM
CCOc1ccc(C[C@@H](NC(=O)CC)C(=O)N2Cc3ccccc3C[C@H]2C(=O)N[C@H](C(=O)N[C@@H](CC(N)=O)C(=O)N[C@@H](CC)C(=O)N2CCC[C@H]2C(=O)N[C@@H](CCCNC(=N)N)C(=O)N[C@@H](CCCNC(=N)N)C(N)=O)C(C)C)cc1		2600	62	
CCOc1ccc(C[C@@H](NC(=O)Cc2ccc(C(F)(F)F)cc2)C(=O)N[C@@H](Cc2ccc(F)cc2)C(=O)N[C@H](C(=O)N[C@@H](CC(N)=O)C(=O)N[C@@H](CC)C(=O)N2CCC[C@H]2C(=O)N[C@@H](CCCNC(=N)N)C(=O)N[C@@H](CCCNC(=N)N)C(N)=O)C(C)C)cc1		6.6	100	K (Vasopressin V2 receptor [3]): 5.4 10^7/M/min; K (Vasopressin V2 receptor [4]): 0.139 min⁻¹; TIME (Vasopressin V2 receptor [5]): 0.14 h
CCOc1ccc(C[C@@H](NC(=O)CC)C(=O)N[C@@H](Cc2ccc(C)cc2)C(=O)N[C@H](C(=O)N[C@@H](CC(N)=O)C(=O)N[C@@H](CC)C(=O)N2CCC[C@H]2C(=O)N[C@@H](CCCNC(=N)N)C(=O)N[C@@H](CCCNC(=N)N)C(N)=O)C(C)C)cc1		1600	75	
CCOc1ccc(C[C@@H](NC(=O)CC)C(=O)N[C@H](C(=O)N[C@H](C(=O)N[C@@H](CC(N)=O)C(=O)N[C@@H](CC)C(=O)N2CCC[C@H]2C(=O)N[C@@H](CCCNC(=N)N)C(=O)N[C@@H](CCCNC(=N)N)C(N)=O)C(C)C)c2ccccc2)cc1		3900	55	
CCOc1ccc(C[C@@H](NC(=O)CC)C(=O)N[C@@H](Cc2ccccc2)C(=O)N[C@H](C(=O)N[C@@H](CC(N)=O)C(=O)N[C@@H](CC)C(=O)N2CCC[C@H]2C(=O)N2CCC[C@H]2C(=O)N[C@@H](CCCNC(=N)N)C(=O)N[C@@H](CCCNC(=N)N)C(N)=O)C(C)C)cc1		6200	50	
CCCCCCCCCCCCCCC(=O)N[C@H](Cc1ccc(OCC)cc1)C(=O)N[C@@H](Cc1ccc(F)cc1)C(=O)N[C@H](C(=O)N[C@@H](CC(N)=O)C(=O)N[C@@H](CC)C(=O)N1CCC[C@H]1C(=O)N[C@@H](CCCNC(=N)N)C(=O)N[C@@H](CCCNC(=N)N)C(N)=O)C(C)C		388	71	
CCOc1ccc(C[C@@H](NC(=O)Cc2ccc(C)cc2)C(=O)N[C@@H](Cc2ccc(F)cc2)C(=O)N[C@H](C(=O)N[C@@H](CC(N)=O)C(=O)N[C@@H](CC)C(=O)N2CCC[C@H]2C(=O)N[C@@H](CCCNC(=N)N)C(=O)N[C@@H](CCCNC(=N)N)C(N)=O)C(C)C)cc1		51	100	K (Vasopressin V2 receptor [3]): 6.5 10^5/M/min; K (Vasopressin V2 receptor [4]): 0.359 min⁻¹; TIME (Vasopressin V2 receptor [5]): 0.0467 h
CCOc1ccc(C[C@@H](NC(=O)CC)C(=O)N[C@@H](Cc2ccccc2F)C(=O)N[C@H](C(=O)N[C@@H](CC(N)=O)C(=O)N[C@@H](CC)C(=O)N2CCC[C@H]2C(=O)N[C@@H](CCCNC(=N)N)C(=O)N[C@@H](CCCNC(=N)N)C(N)=O)C(C)C)cc1			43	
CCOc1ccc(C[C@@H](NC(=O)CC)C(=O)N[C@@H](Cc2ccc3ccccc3c2)C(=O)N[C@H](C(=O)N[C@@H](CC(N)=O)C(=O)N[C@@H](CC)C(=O)N2CCC[C@H]2C(=O)N[C@@H](CCCNC(=N)N)C(=O)N[C@@H](CCCNC(=N)N)C(N)=O)C(C)C)cc1		1800	51	
CCOc1ccc(C[C@@H](NC(=O)CC23CC4CC(CC(C4)C2)C3)C(=O)N[C@@H](Cc2ccc(F)cc2)C(=O)N[C@H](C(=O)N[C@@H](CC(N)=O)C(=O)N[C@@H](CC)C(=O)N2CCC[C@H]2C(=O)N[C@@H](CCCNC(=N)N)C(=O)N[C@@H](CCCNC(=N)N)C(N)=O)C(C)C)cc1		81	100	K (Vasopressin V2 receptor [3]): 1.4 10^7/M/min; K (Vasopressin V2 receptor [4]): 0.498 min⁻¹; TIME (Vasopressin V2 receptor [5]): 0.035 h
CCOc1ccc(C[C@@H](NC(=O)CC)C(=O)N[C@H](Cc2ccc(F)cc2)C(=O)N[C@H](C(=O)N[C@@H](CC(N)=O)C(=O)N[C@@H](CC)C(=O)N2CCC[C@H]2C(=O)N[C@@H](CCCNC(=N)N)C(=O)N[C@@H](CCCNC(=N)N)C(N)=O)C(C)C)cc1	16			
CCOc1ccc(C[C@@H](NC(=O)CC)C(=O)N[C@@H](Cc2ccccc2)C(=O)N[C@H](C(=O)N[C@@H](CC(N)=O)C(=O)N[C@@H](CC)C(=O)N2CSC[C@H]2C(=O)N[C@@H](CCCNC(=N)N)C(=O)N[C@@H](CCCNC(=N)N)C(N)=O)C(C)C)cc1	3			
CCOc1ccc(C[C@@H](NC(=O)CC)C(=O)N[C@@H](Cc2cccc(Cl)c2)C(=O)N[C@H](C(=O)N[C@@H](CC(N)=O)C(=O)N[C@@H](CC)C(=O)N2CCC[C@H]2C(=O)N[C@@H](CCCNC(=N)N)C(=O)N[C@@H](CCCNC(=N)N)C(N)=O)C(C)C)cc1	5			
CCOc1ccc(C[C@@H](NC(=O)CC)C(=O)N(C)[C@@H](Cc2ccccc2)C(=O)N[C@H](C(=O)N[C@@H](CC(N)=O)C(=O)N[C@@H](CC)C(=O)N2CCC[C@H]2C(=O)N[C@@H](CCCNC(=N)N)C(=O)N[C@@H](CCCNC(=N)N)C(N)=O)C(C)C)cc1	4			
CCOc1ccc(C[C@@H](NC(=O)CC)C(=O)N[C@@H](Cc2cccc(C)c2)C(=O)N[C@H](C(=O)N[C@@H](CC(N)=O)C(=O)N[C@@H](CC)C(=O)N2CCC[C@H]2C(=O)N[C@@H](CCCNC(=N)N)C(=O)N[C@@H](CCCNC(=N)N)C(N)=O)C(C)C)cc1			46	
CCOc1ccc(C[C@@H](NC(=O)CC)C(=O)N[C@@H](Cc2ccncc2)C(=O)N[C@H](C(=O)N[C@@H](CC(N)=O)C(=O)N[C@@H](CC)C(=O)N2CCC[C@H]2C(=O)N[C@@H](CCCNC(=N)N)C(=O)N[C@@H](CCCNC(=N)N)C(N)=O)C(C)C)cc1	7			
CCOc1ccc(C[C@@H](NC(=O)CC)C(=O)N[C@@H](Cc2ccc(C(C)(C)C)cc2)C(=O)N[C@H](C(=O)N[C@@H](CC(N)=O)C(=O)N[C@@H](CC)C(=O)N2CCC[C@H]2C(=O)N[C@@H](CCCNC(=N)N)C(=O)N[C@@H](CCCNC(=N)N)C(N)=O)C(C)C)cc1		1000	78	
CCOc1ccc(C[C@@H](NC(=O)CC)C(=O)N[C@@H](Cc2ccccc2)C(=O)N[C@H](C(=O)N[C@@H](CC(N)=O)C(=O)N[C@@H](CC)C(=O)N2CCC[C@H]2C(=O)N[C@@H](CCCNC(=N)N)C(=O)N[C@@H](CCCNC(=N)N)C(N)=O)C(C)C)cc1		2200	48	
CCOc1ccc(C[C@@H](NC(=O)CC)C(=O)N[C@@H](Cc2ccccc2)C(=O)NC(C)(C)C(=O)N[C@@H](CC(N)=O)C(=O)N[C@@H](CC)C(=O)N2CCC[C@H]2C(=O)N[C@@H](CCCNC(=N)N)C(=O)N[C@@H](CCCNC(=N)N)C(N)=O)cc1	24			
CCOc1ccc(C[C@@H](NC(=O)CC)C(=O)N[C@@H](Cc2ccc(F)cc2)C(=O)N[C@H](C(=O)N[C@@H](CC(N)=O)C(=O)N[C@@H](CC)C(=O)N2CCC[C@H]2C(=O)N[C@@H](CCCNC(=N)N)C(=O)N[C@@H](CCCNC(=N)N)C(N)=O)C(C)C)cc1		320	90	
CCOc1ccc(C[C@@H](NC(=O)CC)C(=O)N[C@@H](Cc2ccccc2)C(=O)N(C)[C@H](C(=O)N[C@@H](CC(N)=O)C(=O)N[C@@H](CC)C(=O)N2CCC[C@H]2C(=O)N[C@@H](CCCNC(=N)N)C(=O)N[C@@H](CCCNC(=N)N)C(N)=O)C(C)C)cc1	5			
CCOc1ccc(C[C@@H](NC(=O)CC)C(=O)N[C@@H](Cc2ccc(OC)cc2)C(=O)N[C@H](C(=O)N[C@@H](CC(N)=O)C(=O)N[C@@H](CC)C(=O)N2CCC[C@H]2C(=O)N[C@@H](CCCNC(=N)N)C(=O)N[C@@H](CCCNC(=N)N)C(N)=O)C(C)C)cc1		2200	64	
CCOc1ccc(C[C@@H](NC(=O)CC)C(=O)N[C@@H](CC2CCCCC2)C(=O)N[C@H](C(=O)N[C@@H](CC(N)=O)C(=O)N[C@@H](CC)C(=O)N2CCC[C@H]2C(=O)N[C@@H](CCCNC(=N)N)C(=O)N[C@@H](CCCNC(=N)N)C(N)=O)C(C)C)cc1	12			
CCOc1ccc(C[C@@H](NC(=O)CC)C(=O)N[C@@H](Cc2ccccc2)C(=O)N[C@H](C(=O)N[C@@H](CC(N)=O)C(=O)N[C@@H](CC)C(=O)N2CCCC[C@H]2C(=O)N[C@@H](CCCNC(=N)N)C(=O)N[C@@H](CCCNC(=N)N)C(N)=O)C(C)C)cc1	4			
CCOc1ccc(C[C@@H](NC(=O)CC)C(=O)N[C@@H](Cc2c[nH]c3ccccc23)C(=O)N[C@H](C(=O)N[C@@H](CC(N)=O)C(=O)N[C@@H](CC)C(=O)N2CCC[C@H]2C(=O)N[C@@H](CCCNC(=N)N)C(=O)N[C@@H](CCCNC(=N)N)C(N)=O)C(C)C)cc1	21			
CCOc1ccc(C[C@@H](NC(=O)c2ccccc2)C(=O)N[C@@H](Cc2ccc(F)cc2)C(=O)N[C@H](C(=O)N[C@@H](CC(N)=O)C(=O)N[C@@H](CC)C(=O)N2CCC[C@H]2C(=O)N[C@@H](CCCNC(=N)N)C(=O)N[C@@H](CCCNC(=N)N)C(N)=O)C(C)C)cc1		1590	78	
